Values after ≈ are worked out from the molar mass of the structure shown.

Data set [1] is described as follows: Assessment of solubility: HT solubility in pION buffer, UV spectrophotometry. The note with it: pION system solution buffer, kinetic from dmso stock, 16-19 h incubation, 1.0% DMSO.
Protocol: Solubility is measured by the following method.
DMSO stock samples at 10 mM concentration are prepared. […] The samples are pierced and 100 ul of thawed samples are transferred into the PCR plate for analysis. Each sample is run in duplicate at each pH (pH 4.5 and 7.4). Up to 95 samples can be run in replicate at 2 pH's+1 DMSO (blank).
Preparation of pH 4.5 and 7.4 Buffers:
• pH 4.5 buffer:—To 12.5 of system solution (pION)qs to 500 mL of distilled water (pH 2.85-2.90); adjust the pH to pH 4.5 with 0.5 N NaOH. • pH 7.4 buffer: To 12.5 of system solution (pION)qs to 500 mL of distilled water (pH 2.85-2.90); adjust the pH to pH 7.4 with 0.5N NaOH. […] Procedure: Preparation of UV Blank Plate:
75 ul of buffer (pH 7.4 or pH 4.5) is added to UV plate followed by addition of 70 ul of N-propanol. The solution is mixed and the blank spectrum is read using spectrophotometer.
Preparation of Reference UV Plate:
10 ul of each stock sample (including DMSO control) is added to 190 ul of N-propanol to prepare the reference stock plate. Reference stock samples are mixed and 5 ul of each stock sample is added to UV blank plate after it is read spectrophotometrically. The reference stock sample is mixed with blank solution in UV plate and the reference spectrum is read using UV spectrophotometer.
Preparation of Sample for Incubation:
Solubility at pH 7.4:6 ul of each stock sample (including DMSO control) is added to the storage plate containing 600 ul of pH 7.4 buffer, mixed and incubated for 16-19 h. The plate is sealed well during the incubation process. The DMSO content in the sample is 1.0%. The concentration in deep well plates is 100 uM
6 ul of each stock sample (including DMSO control) is added to the deep well plate containing 600 ul of pH 4.5 buffer, mixed and incubated for 16-19 h. The plate is sealed well during the incubation process. The DMSO content in the sample is 1.0%. The concentration in deep well plates is 100 uM
Preparation of Sample UV Plate:
At the end of the incubation period, 100 uL of sample from the storage plate is vacuum filtered using a filter plate. This step wets the filters and the filtrate is discarded. Another 200 ul of the sample from the deep well plate is vacuum filtered using the same filter block but a clean filter plate. 75 ul of the filtrate from the filter plate is transferred to a UV sample plate. 75 ul of N-propanol is added to this UV plate. The solution is mixed and the spectrum is read using the UV spectrophotometer.
The spectra collected for blank, reference and sample from 250-498 nm is analyzed using pION software. If the sample precipitates out, the solubility is reported as XX μg/ml.
In data set [2] the target is T1, Recombinant human soluble guanylate cyclase (sGC), alpha 1 / beta 1 subunits, heme-free (Homo sapiens, UniProt Q02108+Q02153).
T1 construct: histidine tag (C); made in house; host or cells: Sf9 insect cells (baculovirus coinfection)
T1 sequence (Q02108 1-690 partner): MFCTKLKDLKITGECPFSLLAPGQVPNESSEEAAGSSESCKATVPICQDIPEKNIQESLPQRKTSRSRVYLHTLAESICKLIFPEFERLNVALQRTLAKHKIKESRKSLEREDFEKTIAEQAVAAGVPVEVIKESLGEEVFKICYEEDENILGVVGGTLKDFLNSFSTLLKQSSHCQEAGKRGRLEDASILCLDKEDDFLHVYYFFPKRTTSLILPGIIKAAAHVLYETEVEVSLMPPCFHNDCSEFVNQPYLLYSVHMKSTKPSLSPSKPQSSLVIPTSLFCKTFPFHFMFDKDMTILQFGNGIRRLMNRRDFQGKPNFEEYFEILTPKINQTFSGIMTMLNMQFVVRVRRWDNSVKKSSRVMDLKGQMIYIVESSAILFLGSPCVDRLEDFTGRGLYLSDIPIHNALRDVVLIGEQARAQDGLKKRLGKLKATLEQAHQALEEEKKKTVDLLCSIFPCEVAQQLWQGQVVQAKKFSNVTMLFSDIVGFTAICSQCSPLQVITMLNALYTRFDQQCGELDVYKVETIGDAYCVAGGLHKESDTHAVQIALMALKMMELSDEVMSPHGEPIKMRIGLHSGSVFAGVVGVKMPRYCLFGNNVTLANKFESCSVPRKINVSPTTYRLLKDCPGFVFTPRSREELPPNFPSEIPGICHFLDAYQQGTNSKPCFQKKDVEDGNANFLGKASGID
T1 sequence (Q02153 1-619): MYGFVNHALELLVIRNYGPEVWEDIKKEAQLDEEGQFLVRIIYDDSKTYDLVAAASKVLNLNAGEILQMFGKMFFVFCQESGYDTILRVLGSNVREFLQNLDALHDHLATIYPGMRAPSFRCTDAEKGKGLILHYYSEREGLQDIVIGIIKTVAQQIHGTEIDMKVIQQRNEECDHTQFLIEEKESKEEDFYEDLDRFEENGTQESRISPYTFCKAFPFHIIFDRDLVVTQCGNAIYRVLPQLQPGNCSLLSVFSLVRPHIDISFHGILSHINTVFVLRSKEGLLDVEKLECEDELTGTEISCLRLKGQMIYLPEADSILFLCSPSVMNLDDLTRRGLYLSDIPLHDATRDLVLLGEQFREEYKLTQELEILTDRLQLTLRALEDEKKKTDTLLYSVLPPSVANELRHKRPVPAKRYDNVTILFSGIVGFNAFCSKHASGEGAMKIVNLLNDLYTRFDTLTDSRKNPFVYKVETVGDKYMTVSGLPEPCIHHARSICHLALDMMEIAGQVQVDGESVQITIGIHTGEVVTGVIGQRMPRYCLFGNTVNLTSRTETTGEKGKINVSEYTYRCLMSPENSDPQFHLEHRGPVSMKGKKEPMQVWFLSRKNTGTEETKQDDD
In words: Molecular assay: cGMP formation by heme-free recombinant sGC (CisBio cGMP detection kit). The format is biochemical. The settings on record: 300 pM heme-free sGC, 37° C., 60 min, cGMP readout; read-out: EC50 nM, Activity of Compounds in Molecular Assay. Here is the method:
Recombinant human soluble guanylate cyclase (sGC) is purified from Sf9 insect cells coinfected with baculoviruses expressing the alpha 1 or beta 1 subunit of sGC, both with a C-terminal histidine tag. Heme-free sGC is prepared by treating cell lysate with a final concentration of 0.5% Tween 20 prior to purification on a nickel affinity column.
sGC catalyzes the conversion of guanosine-5′-triphosphate (GTP) to cyclic guanosine monophosphate (cGMP). The activity of sGC is measured in vitro using the commercially available CisBio cGMP detection kit (catalog # 62GM2PEB) in a 384 well format. In brief, 300 pM heme-free sGC is incubated in reaction buffer (50 mM MOPS pH 6.8, 0.2 N KOH, 50 mM NaCl, 2 mM MgCl2, 0.1% BSA, 1.25 mM IBMX, 0.25 mM TCEP, 50 nM GTP) in the presence or absence of dilutions of test compounds diluted in DMSO (final concentration of 1%) in a volume of 10 microL at 37° C. for 60 min. Undiluted reaction products or an 80-fold dilution of reaction products (10 microL of either) prepared in reaction buffer containing 0.2 mM TCEP and 10 mM EDTA is mixed with 5 microL of d2-cGMP plus 5 microL of Eu^3+ cryptate-labeled anti-cGMP, each diluted in buffer containing 0.1 M KPO4 pH 7.5, 0.4 M KF, 20 mM EDTA, 0.2% BSA. After a one h incubation at room temperature in the dark, the mixtures are quantified on an EnVision plate reader (PerkinElmer) according to manufacturer instructions (laser excitation 337 nm, emission 620 and 665 nm). The ratio at each compound concentration is converted to nM cGMP using the linear portion of a calibration curve. Log compound concentration is plotted against combined undiluted and diluted nM cGMP values to determine the EC50 for each curve.

Where [3] appears, read: pH 4.5, pH 4.5, aqueous buffer, Solubility (pH 4.5), pH 4.5 buffer.
Where [4] appears, read: pH 7.4, pH 7.4, aqueous buffer, Solubility (pH 7.4), pH 7.4 buffer.

Turning to `Cc1cc(CN2CCS(=O)(=O)CC2)ccc1COc1ccc(F)cc1-c1csc(N2CCC(C(=O)O)CC2)n1` [Compound 111], the solubility was 0.25 µg/mL (≈ 0.436 µM) in data set [1] (setting [3]) and over 57 µg/mL in data set [1] (setting [4]). Further, in data set [2], the concentration giving a half-maximal response (EC50) was 74 nM. The corresponding values for `Cc1ccc(OCc2ccc(CN(C)CC3CCCCC3)cc2C)c(-c2csc(N3CCC(C(=O)O)CC3)n2)c1` [Compound 91] are 31 µg/mL (≈ 55.2 µM), 12 µg/mL (≈ 21.4 µM) and 730 nM.

Consider `Cc1cc(C(=O)N2CCCCC2)ccc1COc1ccc(F)cc1-c1csc(N2CCC(C(=O)O)CC2)n1` [Compound 59], for which the results for the solubility in data set [1] (setting [3]) and in data set [1] (setting [4]) were 0.5 µg/mL (≈ 0.93 µM) and over 53 µg/mL, respectively. Besides, the concentration giving a half-maximal response (EC50) in data set [2] was determined as 39 nM. Taken in the same sequence, the figures for `COCCCN(C)C(=O)c1ccc(COc2ccc(C)cc2-c2csc(N3CCC(C(=O)O)CC3)n2)c(C#N)c1` [Compound 92] were 20 µg/mL (≈ 35.5 µM), 12 µg/mL (≈ 21.3 µM) and 78 nM. The corresponding values for `Cc1ccc(OCc2ccc(CN3CCOCC3)cc2C)c(-c2csc(N3CCC(C)(C(=O)O)CC3)n2)c1` [Compound 51] are over 58 µg/mL, 31 µg/mL (≈ 57.9 µM) and 1100 nM.

For `Cc1ccc(OCc2ccc(CN3CCOCC3)cc2C#N)c(-c2csc(N3CCC(C(=O)O)CC3)n2)c1` [Compound 167], the solubility in data set [1] (setting [3]) was 41 µg/mL (≈ 77 µM); in data set [1] (setting [4]) it was over 64 µg/mL. Further, the EC50 in data set [2] was 52 nM.

Consider `Cc1cc(CN2CCCC(C(N)=O)C2)ccc1COc1c(C)cccc1-c1csc(N2CCC(C(=O)O)CC2)n1` (centres unmarked) [Compound 94], for which the solubility in data set [1] (setting [3]) and in data set [1] (setting [4]) was over 56 µg/mL throughout. Moreover, the concentration for a half-maximal effect (EC50) in data set [2] worked out at 770 nM. Take `Cc1cc(CN2CCS(=O)(=O)CC2)ccc1COc1c(-c2csc(N3CCC(C(=O)O)CC3)n2)cccc1C(F)(F)F` [Compound 151]: the solubility in data set [1] (setting [3]) is 0.15 µg/mL (≈ 0.24 µM); in data set [1] (setting [4]), over 62 µg/mL. Moreover, in data set [2], the EC50 was found to be 9.9 nM. Turning to `Cc1cc(CN2CCOCC2)ccc1COc1ccc(F)cc1-c1csc(C2CCC(C(=O)O)CC2)n1` (centres unmarked) [Compound 190], the EC50 in data set [2] was 2500 nM.

Turning to `Cc1ccc(OCc2ccc(C(=O)N(C)CC3CCCCC3)cc2C)c(-c2csc(N3CCC(C(=O)O)CC3)n2)c1` [Compound 161], in data set [2], the half-maximal effective concentration (EC50) turned out to be 91 nM. `COCCN(C)C(=O)c1ccc(COc2ccc(C)cc2-c2csc(N3CCC(C(=O)O)CC3)n2)c(C#N)c1` [Compound 178]: the 50% effective concentration (EC50) in data set [2] stood at 270 nM. `Cc1cc(C(=O)N2CCCCC2)ccc1COc1ccc(C#N)cc1-c1csc([C@H]2CC[C@H](C(=O)O)CC2)n1` [Compound 183]: the half-maximal effective concentration (EC50) in data set [2] was determined as 4400 nM.

As for `CCC(=O)N1CCN(Cc2ccc(COc3ccc(C)cc3-c3csc(N4CCC(C(=O)O)CC4)n3)c(C)c2)CC1` [Compound 194], the EC50 in data set [2] stood at 150 nM. Take `Cc1ccc(OCc2ccc(CN3CCOCC3)cc2C)c(-c2csc(N3CCC(C(=O)O)CC3C)n2)c1` (centres unmarked) [Compound 177]: the concentration giving a half-maximal response (EC50) in data set [2] was 170 nM. As to `Cc1ccc(OCc2ccc(C(=O)NC3CCCCC3)cc2C)c(-c2csc(N3CCC(C(=O)O)CC3)n2)c1` [Compound 163], the EC50 in data set [2] amounted to 750 nM. Regarding `Cc1ccc(OCc2ccc(CN3CCOCC3)cc2C)c(-c2csc(N3CC[C@H](C(=O)O)[C@H](C)C3)n2)c1` [Compound 176], the EC50 in data set [2] turned out to be 160 nM.

For `Cc1ccc(OCc2ccc(C(=O)N(C)C3CCCCC3)cc2C)c(-c2csc(N3CCC(C(=O)O)CC3)n2)c1` [Compound 164], the concentration giving a half-maximal response (EC50) in data set [2] was 55 nM. The same measure, in the same setting: for `Cc1ccc(OCc2ccc(CN3CCS(=O)(=O)CC3)cc2C)c(-c2csc(N3CCC(C(=O)O)CC3C)n2)c1` (centres unmarked) [Compound 124] the value was 30 nM; for `Cc1cc(C(=O)N2CCCCC2)ccc1COc1ccc(Cl)cc1-c1csc(C2CCC(C(=O)O)CC2)n1` (centres unmarked) [Compound 182], 1600 nM.

Take `Cc1cc(C(=O)N2CCCCC2)ccc1COc1ccc(C#N)cc1-c1csc(C2=CCC(C(=O)O)CC2)n1` (centres unmarked) [Compound 184]: the concentration giving a half-maximal response (EC50) in data set [2] turned out to be 1800 nM. Still for that read-out and setting: for `Cc1cc(CN2CCOCC2)ccc1COc1ccc(Cl)cc1-c1csc(C2=CCC(C(=O)O)CC2)n1` (centres unmarked) [Compound 188] the value was 830 nM. With `Cc1cc(CN2CCOCC2)ccc1COc1ccccc1-c1csc(C2=CCC(C(=O)O)CC2)n1` (centres unmarked) [Compound 193], in data set [2], the concentration giving a half-maximal response (EC50) was determined as 2400 nM.

As for `Cc1cc(CN2CCS(=O)(=O)CC2)ccc1COc1ccccc1-c1csc(N2CC3CCC(C2)C3C(=O)O)n1` (centres unmarked) [Compound 120], in data set [2], the half-maximal effective concentration (EC50) was 18 nM. Still for that read-out and setting: for `COCCCN(C)C(=O)c1ccc(COc2ccc(C)cc2-c2csc(N3CCC(C(=O)O)CC3)n2)c(C)c1` [Compound 162] the value was 71 nM; for `Cc1cc(CN2CCOCC2)ccc1COc1ccc(F)cc1-c1csc(C2=CCC(C(=O)O)CC2)n1` (centres unmarked) [Compound 191], 530 nM.

For `Cc1cc(CN2CCS(=O)(=O)CC2)ccc1COc1ccc(C#N)cc1-c1csc(N2CC3C(C2)C3C(=O)O)n1` (centres unmarked) [Compound 116], in data set [2], the 50% effective concentration (EC50) was found to be 1100 nM. On to `Cc1ccc(OCc2ccc(CN3CCN(C(=O)C(C)(C)C)CC3)cc2C)c(-c2csc(N3CCC(C(=O)O)CC3)n2)c1` [Compound 195], for which the EC50 in data set [2] worked out at 83 nM.

As to `Cc1ccc(OCc2ccc(C(=O)N(C)C)cc2C)c(-c2csc(N3CCC(C(=O)O)CC3)n2)c1` [Compound 294], the EC50 in data set [2] was determined as 290 nM. Regarding `Cc1cc(CN2CCS(=O)(=O)CC2)ccc1COc1ccc(Cl)cc1-c1csc(N2CCC(C(=O)O)C(C)C2)n1` (centres unmarked) [Compound 144], the EC50 in data set [2] was found to be 54 nM. For `Cc1cc(CN2CCOCC2)ccc1COc1ccc(Cl)cc1-c1csc(N2CC3C(C2)C3C(=O)O)n1` (centres unmarked) [Compound 187], in data set [2], the EC50 was 390 nM. As for `Cc1ccc(OCc2ccc(C(=O)N(C)CCN(C)C)cc2C)c(-c2csc(N3CCC(C(=O)O)CC3)n2)c1` [Compound 160], the concentration for a half-maximal effect (EC50) in data set [2] came to 2800 nM. Take `Cc1cc(CN2CCOCC2)ccc1COc1ccccc1-c1csc(N2CCC(C(=O)O)C(C(F)(F)F)C2)n1` (centres unmarked) [Compound 185]: in data set [2], the EC50 was 2700 nM.

Turning to `COCCCNC(=O)c1ccc(COc2ccc(C)cc2-c2csc(N3CCC(C(=O)O)CC3)n2)c(C)c1` [Compound 159], the EC50 in data set [2] turned out to be 1900 nM. Take `Cc1cc(CN2CCOCC2)ccc1COc1ccc(C#N)cc1-c1csc(C2=CCC(C(=O)O)CC2)n1` (centres unmarked) [Compound 189]: in data set [2], the concentration giving a half-maximal response (EC50) is 9000 nM.

Values taken from patent publication US8815857B2 (Boehringer Ingelheim International GmbH, priority 2011, dated 2014).
